Patent US20250214977A1, “STAT6 INHIBITORS AND USES THEREOF” (Kymera Therapeutics, Inc., priority 2024, published 2025)
pIC50: −log10 of the molar value.

The molecules below were run on Phosphorylation of STAT6 in human A549 cells (assay: Phosphorylated STAT6 (pSTAT6) flow cytometry assay in human A549 cells). Conditions: read-out: STAT6 IL4 pSTAT6 assay in A549 cells: Average IC50.
Format: cell-based
Excerpt: Example 3. Phosphorylated STAT6 (pSTAT6) Flow Cytometry Assay in Human A549 Cells
Phosphorylation of STAT6 in human A549 cells was quantitatively measured using flow cytometry technology.

Row | Structure (SMILES) | pIC50
1 | CNc1ccc(-c2cc(C3=CCCN(C(=O)CCn4ccnn4)C3)cc3[nH]c(C(=O)N(C)C)cc23)c(Cl)c1 [Example I-1050] | > 7.00
2 | CNc1ccc(-c2cc(C3=CCCN(C(=O)CCn4ccnn4)C3)cc3[nH]c(C(=O)N(C)C)cc23)c(OC)c1 [Example I-1051] | < 4.00
3 | CN(C)C(=O)c1cc2c(F)c(C3=CCCN(C(=O)CCn4ccnn4)C3)ccc2o1 [Example I-1052] | > 7.00
4 | CNc1ccc(-c2cc(C3=CCCN(C(=O)CCn4ccnn4)C3)cc3[nH]c(C(=O)N(C)C)cc23)c(C)c1 [Example I-1053] | > 7.00
5 | COc1ccccc1-c1cc(C2=CCCN(C(=O)CCn3ccnn3)C2)cc2[nH]c(C(=O)N(C)C)cc12 [Example I-1054] | > 7.00
6 | COc1cc(F)ccc1-c1cc(C2=CCCN(C(=O)CCn3ccnn3)C2)cc2[nH]c(C(=O)N(C)C)cc12 [Example I-1055] | > 7.00
7 | CNc1ccc(-c2cc(C3=CCCN(C(=O)CCn4ccnn4)C3)cc3cc(C(=O)N(C)C)oc23)c(OC)c1 [Example I-1056] | > 7.00
8 | COc1ccc(C)cc1-c1cc(C2=CCCN(C(=O)CCn3ccnn3)C2)cc2[nH]c(C(=O)N(C)C)cc12 [Example I-1057] | > 7.00
9 | COc1ccc(Cl)cc1-c1cc(C2=CCCN(C(=O)CCn3ccnn3)C2)cc2[nH]c(C(=O)N(C)C)cc12 [Example I-1058] | > 7.00
10 | CNc1ccc(-c2cc(C3=CCCN(C(=O)CCn4ccnn4)C3)c(F)c3[nH]c(C(=O)N(C)C)cc23)c(OC)c1 [Example I-1059] | > 7.00
11 | COc1cnccc1-c1cc(C2=CCCN(C(=O)CCn3ccnn3)C2)cc2[nH]c(C(=O)N(C)C)cc12 [Example I-1060] | > 7.00
12 | Cc1ccc(Cl)c(-c2cc(C3=CCCN(C(=O)CCn4ccnn4)C3)cc3[nH]c(C(=O)N(C)C)cc23)c1 [Example I-1061] | > 7.00
13 | COc1ccc(Cl)c(-c2cc(C3=CCCN(C(=O)CCn4ccnn4)C3)cc3[nH]c(C(=O)N(C)C)cc23)c1 [Example I-1062] | > 7.00
14 | CNc1ccc(-c2cc(C3=CCCN(C(=O)C4Cc5c(N)cccc5CN4C=O)C3)cc3cc(C(=O)N(C)C)oc23)c(OC)c1 (stereo not shown) [Example I-1063] | > 7.00
15 | COc1ccncc1-c1cc(C2=CCCN(C(=O)CCn3ccnn3)C2)c(F)c2[nH]c(C(=O)N(C)C)cc12 [Example I-1065] | > 7.00
16 | CN(C)C(=O)c1cc2c(-c3cc4cc[nH]c4cc3Cl)cc(C3=CCCN(C(=O)CCn4ccnn4)C3)cc2[nH]1 [Example I-1066] | > 7.00
17 | COc1cnccc1-c1cc(C2=CCCN(C(=O)CCn3ccnn3)C2)cc2cc(C(=O)N(C)C)oc12 [Example I-1067] | > 7.00
18 | CN(C)C(=O)c1cc2c(-c3ccccc3S(C)(=O)=O)cc(C3=CCCN(C(=O)CCn4ccnn4)C3)c(F)c2[nH]1 [Example I-1068] | > 7.00
19 | COc1ccccc1-c1cc(C2=CCCN(C(C)=O)C2)c(F)c2[nH]c(C(=O)N(C)C)cc12 [Example I-1069] | > 7.00
20 | Cc1cc(-c2cc(C3=CCCN(C(=O)CCn4ccnn4)C3)cc3cc(C(=O)N(C)C)oc23)n(C)n1 [Example I-1070] | > 7.00
21 | CN(C)C(=O)c1cc2cc(C3=CCCN(C(=O)CCn4ccnn4)C3)cc(-c3ccc4[nH]ccc4c3)c2o1 [Example I-1071] | > 7.00
22 | CN(C)C(=O)c1cc2cc(C3=CCCN(C(=O)CCn4ccnn4)C3)cc(-c3ccc4cnn(C)c4c3)c2o1 [Example I-1072] | > 7.00

Row | Structure (SMILES) | pIC50
23 | CN(C)C(=O)c1cc2cc(C3=CCCN(C(=O)CCn4ccnn4)C3)cc(-c3ccc(C(F)(F)F)cc3O)c2o1 [Example I-1073] | > 7.00
24 | CN(C)C(=O)c1cc2cc(C3=CCCN(C(=O)CCn4ccnn4)C3)cc(-c3ccc(F)cc3O)c2o1 [Example I-1074] | > 7.00
25 | Cc1[nH]nc2ccc(-c3cc(C4=CCCN(C(=O)CCn5ccnn5)C4)cc4cc(C(=O)N(C)C)oc34)cc12 [Example I-1075] | > 7.00
26 | COc1c(F)cccc1-c1cc(C2=CCCN(C(=O)CCn3ccnn3)C2)cc2cc(C(=O)N(C)C)oc12 [Example I-1076] | > 7.00
27 | CN(C)C(=O)c1cc2cc(C3=CCCN(C(=O)CCn4ccnn4)C3)cc(-c3cnn(C)c3)c2o1 [Example I-1077] | > 7.00
28 | COc1cc(C)c(-c2cc(C3=CCCN(C(=O)CCn4ccnn4)C3)cc3cc(C(=O)N(C)C)oc23)cc1C [Example I-1078] | > 7.00
29 | Cc1ccc(C#N)cc1-c1cc(C2=CCCN(C(=O)CCn3ccnn3)C2)cc2cc(C(=O)N(C)C)oc12 [Example I-1079] | > 7.00
30 | CN(C)C(=O)c1cc2cc(C3=CCCN(C(=O)CCn4ccnn4)C3)cc(-c3ccc4[nH]ncc4c3)c2o1 [Example I-1080] | > 7.00
31 | CN(C)C(=O)c1cc2cc(C3=CCCN(C(=O)CCn4ccnn4)C3)cc(-c3cc(F)ccc3C(F)(F)F)c2o1 [Example I-1081] | > 7.00
32 | COc1ncccc1-c1cc(C2=CCCN(C(=O)CCn3ccnn3)C2)cc2cc(C(=O)N(C)C)oc12 [Example I-1082] | > 7.00
33 | Cc1cc(F)ccc1-c1cc(C2=CCCN(C(=O)CCn3ccnn3)C2)cc2cc(C(=O)N(C)C)oc12 [Example I-1083] | > 7.00
34 | Cc1ccc(-c2cc(C3=CCCN(C(=O)CCn4ccnn4)C3)cc3cc(C(=O)N(C)C)oc23)cn1 [Example I-1084] | > 7.00
35 | Cc1c[nH]c2ncc(-c3cc(C4=CCCN(C(=O)CCn5ccnn5)C4)cc4cc(C(=O)N(C)C)oc34)cc12 [Example I-1085] | > 7.00
36 | Cc1ccccc1-c1cc(C2=CCCN(C(=O)CCn3ccnn3)C2)cc2cc(C(=O)N(C)C)oc12 [Example I-1086] | > 7.00
37 | CN1CCN(c2ccc(-c3cc(C4=CCCN(C(=O)CCn5ccnn5)C4)cc4cc(C(=O)N(C)C)oc34)cn2)CC1 [Example I-1087] | > 7.00
38 | COc1cc(-c2cc(C3=CCCN(C(=O)CCn4ccnn4)C3)cc3cc(C(=O)N(C)C)oc23)cc(OC)c1OC [Example I-1088] | > 7.00
39 | CN(C)C(=O)c1cc2cc(C3=CCCN(C(=O)CCn4ccnn4)C3)cc(-c3ccc4cncnc4c3)c2o1 [Example I-1089] | > 7.00
40 | COc1cncc(C)c1-c1cc(C2=CCCN(C(=O)CCn3ccnn3)C2)cc2cc(C(=O)N(C)C)oc12 [Example I-1090] | > 7.00
41 | COc1ccccc1-c1cc(C2=CCCN(C(C)=O)C2)cc2[nH]c(C(=O)N(C)C)cc12 [Example I-1091] | 6.00 to 7.00
42 | CNc1ccc(-c2cc(C3=CCCN(C(C)=O)C3)c(F)c3[nH]c(C(=O)N(C)C)cc23)c(OC)c1 [Example I-1092] | > 7.00
43 | CC(=O)N1CCC=C(c2cc(-c3ccccc3N(C)C)c3cc(C(=O)N(C)C)[nH]c3c2F)C1 [Example I-1093] | 6.00 to 7.00
44 | COc1ccncc1-c1cc(C2=CCCN(C(C)=O)C2)c(F)c2[nH]c(C(=O)N(C)C)cc12 [Example I-1094] | > 7.00

Row | Structure (SMILES) | pIC50
45 | CC(=O)N1CCC=C(c2cc(-c3cccc4c3OCCO4)c3cc(C(=O)N(C)C)[nH]c3c2F)C1 [Example I-1095] | > 7.00
46 | CN(C)C(=O)c1ccc2c(c1)cc(C1=CCCN(C(=O)CCn3ccnn3)C1)n2CC1CC1 [Example I-1096] | > 7.00
47 | CC(=O)c1ccccc1-c1cc(C2=CCCN(C(C)=O)C2)c(F)c2[nH]c(C(=O)N(C)C)cc12 [Example I-1097] | < 4.00
48 | CC(=O)N1CCC=C(c2cc(-c3cncc4ccccc34)c3cc(C(=O)N(C)C)[nH]c3c2F)C1 [Example I-1098] | > 7.00
49 | CC(=O)N1CCC=C(c2cc(-c3ccccc3C(N)=O)c3cc(C(=O)N(C)C)[nH]c3c2F)C1 [Example I-1099] | 6.00 to 7.00
50 | Cc1c[nH]c2ncc(-c3cc(C4=CCCN(C(=O)CCn5ccnn5)C4)c(F)c4cc(C(=O)N(C)C)oc34)cc12 [Example I-1100] | > 7.00
51 | Cc1c[nH]c2ncc(-c3cc(C4=CCCN(C(=O)CCn5ccnn5)C4)c(F)c4[nH]c(C(=O)N(C)C)cc34)cc12 [Example I-1101] | > 7.00
52 | COc1ccccc1-c1cc(C2=CCCN(C(=O)CCn3ccnn3)C2)cc2cc(C(=O)N(C)C)oc12 [Example I-1103] | > 7.00
53 | COc1ccccc1-c1cc(C2=CCCN(C(C)=O)C2)c(F)c2cc(C(=O)N(C)C)oc12 [Example I-1104] | 6.00 to 7.00
54 | COc1cccc(F)c1-c1cc(C2=CCCN(C(C)=O)C2)c(F)c2cc(C(=O)N(C)C)oc12 [Example I-1105] | 6.00 to 7.00
55 | COc1ccccc1-c1cc(C2=CCCN(C(C)=O)C2)c(F)c2sc(C(=O)N3CCN(c4ncccc4OC)CC3)cc12 [Example I-1106] | 5.00 to 6.00
56 | COc1cc(F)ccc1-c1cc(C2=CCCN(C(=O)CCn3ccnn3)C2)c(F)c2[nH]c(C(=O)N3CCN(c4ccc(F)c(OC)n4)CC3)cc12 [Example I-1107] | 6.00 to 7.00
57 | CCOc1ccncc1-c1cc(C2=CCCN(C(=O)CCn3ccnn3)C2)c(F)c2[nH]c(C(=O)N3CCN(c4ncncc4OC)CC3)cc12 [Example I-1108] | > 7.00
58 | COc1cccc(N2CCN(C(=O)c3cc4c(-c5ccc(N(C)C)cc5OC)cc(C5=CCCN(C(=O)CCn6ccnn6)C5)c(F)c4[nH]3)CC2)n1 [Example I-1109] | > 7.00
59 | COc1cc(F)cnc1N1CCN(C(=O)c2cc3c(C=CC(C)(C)O)cc(C4=CCCN(C(=O)CCn5ccnn5)C4)c(F)c3[nH]2)CC1 [Example I-1110] | > 7.00
60 | COc1cc(F)cnc1N1CCN(C(=O)c2cc3c(-c4ccc(OC5CCOCC5)cc4)cc(C4=CCCN(C(=O)CCn5ccnn5)C4)c(F)c3[nH]2)CC1 [Example I-1111] | > 7.00
61 | COCCCOc1ccc(-c2cc(C3=CCCN(C(=O)CCn4ccnn4)C3)c(F)c3[nH]c(C(=O)N4CCN(c5ncc(F)cc5OC)CC4)cc23)cc1 [Example I-1112] | > 7.00
62 | COc1cc(F)cnc1N1CCN(C(=O)c2cc3c(-c4ccn(-c5ccccc5)n4)cc(C4=CCCN(C(=O)CCn5ccnn5)C4)c(F)c3[nH]2)CC1 [Example I-1113] | 6.00 to 7.00
63 | COc1cc(F)cnc1N1CCN(C(=O)c2cc3c(-c4ccc(-n5nc(C)cc5C)cc4)cc(C4=CCCN(C(=O)CCn5ccnn5)C4)c(F)c3[nH]2)CC1 [Example I-1114] | > 7.00
64 | COc1cc(F)cnc1N1CCN(C(=O)c2cc3c(-c4cnn(Cc5ccccc5)c4)cc(C4=CCCN(C(=O)CCn5ccnn5)C4)c(F)c3[nH]2)CC1 [Example I-1115] | > 7.00
